Source: patent US6140354A, “N-substituted aminotetralins as ligands for the neuropeptide Y Y5 receptor useful in the treatment of obesity and other disorders” (Ortho-McNeil Pharmaceutical, Inc., priority 1999, dated 2000)

Target: T1, human neuropeptide Y5 receptor (Homo sapiens, UniProt Q15761)
T1 construct: expressed in transfected cells
T1 sequence (Q15761 1-445): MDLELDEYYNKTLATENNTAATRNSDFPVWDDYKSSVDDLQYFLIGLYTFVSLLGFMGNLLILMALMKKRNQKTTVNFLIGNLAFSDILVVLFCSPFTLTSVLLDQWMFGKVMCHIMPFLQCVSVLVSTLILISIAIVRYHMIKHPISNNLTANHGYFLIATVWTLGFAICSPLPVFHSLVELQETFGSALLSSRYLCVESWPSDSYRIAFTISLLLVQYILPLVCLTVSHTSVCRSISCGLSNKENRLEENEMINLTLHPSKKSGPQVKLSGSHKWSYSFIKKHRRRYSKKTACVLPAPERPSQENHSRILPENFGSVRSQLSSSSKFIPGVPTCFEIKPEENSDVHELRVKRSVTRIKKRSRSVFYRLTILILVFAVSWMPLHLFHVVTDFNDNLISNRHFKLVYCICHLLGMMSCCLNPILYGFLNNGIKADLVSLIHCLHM
Experiment: NPY5 HTS Centrifugation Assay: competition with 125I-PYY for binding to NPY5-transfected HEK293 cell membranes
Conditions: 80 pM 125I-PYY, 1 hr room temperature, read-out: % Inh @ 3 uM (% Inhibition of ^125 I-PYY Binding)
Protocol: The compounds described in this invention were evaluated for binding to the human neuropeptide Y5 receptor.
The human NPY5 receptor cDNA (Genbank Accession number U66275) was inserted into the vector pClneo (Invitrogen) and transfected into human embryonic kidney cells (HEK-293) via Calcium phosphate method (Cullen 1987). Stably transfected cells were selected with G-418 (600 ug/mL). Stably transfected cells served as the source for the membranes for the NPY5 receptor binding assay.
NPY5-transfected HEK293 cells were grown to confluence in 150 cm^2 culture dishes. Cells were washed once with phosphate-buffered saline (Gibco Cat#14040-133). Cells were then incubated in phosphate-buffered saline without Calcium and without Magnesium, supplemented with 2 mM EDTA. Cells were incubated for 10 minutes at room temperature and the cells were collected by repetitive pipeting. Cells were formed into pellets and then frozen at -80 until needed. Frozen pellets were homogenized with a polytron at full speed for 12 seconds in a homogenization buffer (20 mM Tris HCl, 5 mM EDTA, pH 7.4). Homogenates were centrifuged for 5 minutes at 4C at 200 g. Supernatants were transferred to corex tubes and centrifuged for 25 minutes at 28,000 g. Pellets were re-suspended in Binding (20 mM HEPES, 10 mM NaCl, 0.22 mM KH2 PO4, 1.3 mM CaCl2, 0.8 mM MgSO4, pH 7.4). Membranes were kept on ice until use.
A competition binding assay, known to those skilled in the art, was used in which aminotetralins (I) compete with ^125 I-PYY for binding to cell membranes. In simple terms, the less ^125 I-PYY bound to the membranes implies that a compound is a good inhibitor (competitor). Bound ^125 I-PYY is determined by centrifugation of membranes, aspirating supernatant, washing away residual ^125 I-PYY and subsequently counting the bound sample in a g-counter.
Compounds to be tested were prepared as 10× stocks in binding buffer and added first to assay tubes (RIA vials, Sarstedt). Twenty (20) μL of each 10× compound stock is pipeted into vials and 80 μL of ^125 I-PYY (NEN catalog number NEX240), which has been diluted to a concentration of 200 pM in 0.25% BSA in binding buffer, is added to the compound tubes (final concentration of ^125 I-PYY is 80 pM). To each tube is added 100 μL of membranes and the mixture is agitated by pipeting 2 times. Samples are incubated for 1 hr at room temperature. Aluminum cast plates (Sarstedt) containing the vials are then centrifuged 10 minutes at 3200 rpm in a Sorvall RT6000. Supernatant is then aspirated. To each vial 400 μL PBS is added and this is then aspirated again. Vials are then put in carrier polypropylene 12×75 tube and counted in gamma counter (Packard). Non-specific binding is determined in the presence of 300 nM NPY. Percent inhibition of ^125 I-PYY binding is calculated by subtracting non-specific binding from the test samples (compound (I)), taking these counts and dividing by total binding, and multiplying by 100. Inhibitory concentration values (IC50) of compounds that show appreciable inhibition of ^125 I-PYY binding are calculated by obtaining percent inhibition of ^125 I-PYY binding values at different concentrations of the test compound, and using a graphing program such as GraphPad Prism (San Diego, Calif.) to calculate the concentration of test compound that inhibits fifty-percent of ^125 I-PYY binding (Table 4). These operations are known to those skilled in the art.

COc1ccc2c(c1)CC[C@H](NC[C@H]1CC[C@H](CNS(=O)(=O)c3ccc4ccccc4c3)CC1)[C@@H]2Cc1ccccc1 (relative stereo) [Compound 10, rac-[1α,2α(trans)]-N-[[[[[1,2,3,4-tetrahydro-6-methoxy-1-(phenylmethyl)-2-naphthalenyl]amino]methyl]-4-cyclohexyl]methyl]2-naphthalenesulfonamide]
inhibition at 3 µM: 96%

COc1ccc2c(c1)CC[C@H](NCCCCCNS(=O)(=O)c1ccc3ccccc3c1)[C@@H]2Cc1ccccc1 (relative stereo) [Compound 11, rac-[1α,2α(trans)]-N-[[[[[1,2,3,4-tetrahydro-6-methoxy-1-(phenylmethyl)-2-naphthalenyl]amino]-5-pentyl]2-naphthalenesulfonamide]
inhibition at 3 µM: 95%

COc1ccc2c(c1)CC[C@H](NC[C@H]1CC[C@H](CNS(=O)(=O)c3ccc4ccccc4c3)CC1)[C@@H]2Cc1cccnc1 (relative stereo) [Compound 18, rac-[1α,2α(trans)]-N-[[[[[1,2,3,4-tetrahydro-6-methoxy-1-(3-pyridinylmethyl)-2-naphthalenyl]amino]methyl]-4-cyclohexyl]methyl]2-naphthalenesulfonamide]
inhibition at 3 µM: 96%

O=S(=O)(NC[C@H]1CC[C@H](CN[C@H]2CCc3cc(F)ccc3[C@H]2Cc2ccccc2)CC1)c1ccccc1F (relative stereo) [Compound 26, rac-[1α,2α(trans)]-N-[[[[[1,2,3,4-tetrahydro-6-fluoro-1-(3-phenylmethyl)-2-naphthalenyl]amino]methyl]-4-cyclohexyl]methyl]2-fluorobenzenesulfonamide]
inhibition at 3 µM: 107%

COc1ccc2c(c1)CC[C@H](NC[C@H]1CC[C@H](CNS(=O)(=O)c3ccc4ccccc4c3)CC1)[C@@H]2c1ccccc1 (relative stereo) [Compound 34, [1α,2α(trans)]-N-[[[[[1,2,3,4-tetrahydro-6-methoxy-1-phenyl-2-naphthalenyl]amino]methyl]-4-cyclohexyl]methyl]2-naphthlenesulfonamide]
inhibition at 3 µM: 46%

C=CC[C@@H]1c2ccc(OC)cc2CC[C@@H]1NC[C@H]1CC[C@H](CNS(=O)(=O)c2ccccc2)CC1 (relative stereo) [Compound 39, rac-[1α,2α(trans)]-N-[[[[[1,2,3,4-tetrahydro-6-methoxy-1-(1-propene-3-yl)-2-naphthalenyl]amino]methyl]4-cyclohexyl]methyl] benzenesulfonamide]
inhibition at 3 µM: 102%

COc1ccc2c(c1)CC[C@H](NC[C@H]1CC[C@H](CNS(=O)(=O)c3ccccc3)CC1)[C@@H]2CCCO (relative stereo) [Compound 40, rac-[1α,2α(trans)]-N-[[[[[1,2,3,4-tetrahydro-6-methoxy-1-(3-hydroxypropyl)-2-naphthalenyl]amino]methyl]-4-cyclohexyl]methyl] benzenesulfonamide]
inhibition at 3 µM: 91%

CCC[C@@H]1c2ccc(OC)cc2CC[C@@H]1NC[C@H]1CC[C@H](CNS(=O)(=O)c2ccccc2)CC1 (relative stereo) [Compound 42, rac-[1α,2α(trans)]-N-[[[[[1,2,3,4-tetrahydro-6-methoxy-1-(n-propyl)-2-naphthalenyl]amino]methyl]-4-cyclohexyl]methyl] benzenesulfonamide]
inhibition at 3 µM: 101%

O=S(=O)(NCCCCCN[C@H]1CCc2ccccc2[C@H]1Cc1ccccc1)c1ccc2ccccc2c1 (relative stereo) [Compound 46]
inhibition at 3 µM: 89%

COc1ccc2c(c1)CC[C@H](NCCCCCCCNS(=O)(=O)c1ccc3ccccc3c1)[C@@H]2Cc1ccccc1 (relative stereo) [Compound 47]
inhibition at 3 µM: 79%

COc1ccc2c(c1)CC[C@H](NCc1ccc(CNS(=O)(=O)c3ccc4ccccc4c3)cc1)[C@@H]2Cc1ccccc1 (relative stereo) [Compound 49]
inhibition at 3 µM: 60%

COc1ccc2c(c1)CC[C@H](NC[C@H]1CC[C@H](CNS(=O)(=O)c3cccc4ccccc34)CC1)[C@@H]2Cc1ccccc1 (relative stereo) [Compound 51]
inhibition at 3 µM: 95%

COc1ccc2c(c1)CC[C@H](NC[C@H]1CC[C@H](CNS(=O)(=O)c3ccccc3)CC1)[C@@H]2Cc1ccccc1 (relative stereo) [Compound 52]
inhibition at 3 µM: 99%

COc1ccc2c(c1)CC[C@H](NC[C@H]1CC[C@H](CNS(=O)(=O)c3ccccc3[N+](=O)[O-])CC1)[C@@H]2Cc1ccccc1 (relative stereo) [Compound 54]
inhibition at 3 µM: 94%

COc1ccc2c(c1)CCC(NC[C@H]1CC[C@H](CNS(=O)(=O)c3ccc(S(C)(=O)=O)cc3)CC1)C2Cc1ccccc1 (relative stereo) [Compound 55]
inhibition at 3 µM: 90%

COc1ccc2c(c1)CCC(NC[C@H]1CC[C@H](CNS(=O)(=O)c3cc(Cl)cc(Cl)c3)CC1)C2Cc1ccccc1 (relative stereo) [Compound 56]
inhibition at 3 µM: 73%

COc1ccc2c(c1)CCC(NC[C@H]1CC[C@H](CNS(=O)(=O)c3ccccc3F)CC1)C2Cc1ccccc1 (relative stereo) [Compound 57]
inhibition at 3 µM: 98%

COc1ccc2c(c1)CCC(NC[C@H]1CC[C@H](CNS(=O)(=O)c3ccc(F)cc3)CC1)C2Cc1ccccc1 (relative stereo) [Compound 58]
inhibition at 3 µM: 91%

COc1ccc2c(c1)CC[C@H](NC[C@H]1CC[C@H](CNS(=O)(=O)c3cccs3)CC1)[C@@H]2Cc1ccccc1 (relative stereo) [Compound 59]
inhibition at 3 µM: 102%

COc1ccc2c(c1)CCC(NC[C@H]1CC[C@H](CNS(=O)(=O)c3ccccc3Cl)CC1)C2Cc1ccccc1 (relative stereo) [Compound 66]
inhibition at 3 µM: 99%

O=[N+]([O-])c1ccccc1S(=O)(=O)NC[C@H]1CC[C@H](CNC2CCc3cc(F)ccc3C2Cc2ccccc2)CC1 (relative stereo) [Compound 72]
inhibition at 3 µM: 106%

O=S(=O)(NC[C@H]1CC[C@H](CNC2CCc3cc(F)ccc3C2Cc2ccccc2)CC1)c1ccccc1Cl (relative stereo) [Compound 73]
inhibition at 3 µM: 107%

O=S(=O)(NC[C@H]1CC[C@H](CNC2CCc3cc(F)ccc3C2Cc2ccccc2)CC1)c1ccccc1Br (relative stereo) [Compound 74]
inhibition at 3 µM: 105%

COc1ccc2c(c1)C(Cc1ccccc1)C(NC[C@H]1CC[C@H](CNS(=O)(=O)c3ccc4ccccc4c3)CC1)CC2 (relative stereo) [Compound 80]
inhibition at 3 µM: 75%

COc1ccc2c(c1)CCC(NC[C@H]1CC[C@H](CNS(=O)(=O)c3ccccc3)CC1)C2Cc1ccc2ccccc2c1 (relative stereo) [Compound 81]
inhibition at 3 µM: 89%

COc1ccc2c(c1)CCC(NC[C@H]1CC[C@H](CNS(=O)(=O)c3ccc4ccccc4c3)CC1)C2Cc1ccc2ccccc2c1 (relative stereo) [Compound 82]
inhibition at 3 µM: 54%

COc1cccc(CC2c3ccc(OC)cc3CCC2NC[C@H]2CC[C@H](CNS(=O)(=O)c3ccccc3)CC2)c1 (relative stereo) [Compound 83]
inhibition at 3 µM: 92%

COc1ccc2c(c1)CCC(NC[C@H]1CC[C@H](CNS(=O)(=O)c3ccccc3)CC1)C2Cc1ccccc1OC (relative stereo) [Compound 85]
inhibition at 3 µM: 74%

COc1ccc2c(c1)CCC(NC[C@H]1CC[C@H](CNS(=O)(=O)c3ccccc3[N+](=O)[O-])CC1)C2Cc1ccc([N+](=O)[O-])cc1 (relative stereo) [Compound 88]
inhibition at 3 µM: 85%
